Patent EP0659743A1, “Piperidine derivatives as inhibitors of platelet aggregation and their preparation” (HOECHST AKTIENGESELLSCHAFT, priority 1993, dated 1995)

How the values were obtained:
Human Platelet = assay: In-vitro Human Platelet Aggregation in PRP (ADP induced); assay type: cell-based; settings: PRP (platelet rich plasma), 37°C, read-out: IC₅₀(µM) Inhibitor of ADP induced Platelet aggregation
Procedure: The compounds of the above invention are tested for platelet binding inhibitory activity in the following assays: • 1. In-vitro Human Platelet Aggregation in PRP: Blood is drawn from healthy human volunteers who had no medication for at least two weeks. 8.4 ml of venous blood are collected into 1.4 ml of ACD solution (citric acid 0.8 %, sodium citrate 2.2 %, hirudin 0.6 u/ml) and centrifuged for 10 min. at 120 g. The platelet rich plasma (PRP) is carefully removed and remaining blood is further centrifuged at 1200 g for 15 min. to separate platelet poor plasma (PPP). For aggregation studies the aggregometer is adjusted by using PPP and PRP. ADP is then added tp PRP which is kept at 37°C and stirred constantly at 1000 rpm. The aggregation of platelets causes an increase in transparency of PRP which is recorded. • 2. Preparation of Gel Filtered Platelets (GFP): Platelet rich plasma (PRP) is collected as mentioned in the above procedure. Its pH is adjusted to 6.5 with ACD solution and then centrifuged at 285 g for 20 min.. The resulting pellet is resuspended in Tyrode's buffer (NaCl, 7.01 g/l; KCl, 0194 g/l; NaHCO₃, 1.01 g/l; Glucose, 1.09 g/l; NaH₂PO₄, 0.061 g/l; Hepes, 2.380 g/l; albumin, 3.5 g/l) and the platelet suspension is applied on to a ^RSepharose CL 20 column. Equilibrium and elution is done with Tyrode's buffer. Platelets are recovered in the void volume. Final platelet concentration is adjusted to 4 X 108 platelets/ml. For the aggregation studies, GFP in Tyrodes buffer is mixed with calcium chloride (final concentration […]) and an agonist (ADP or Thrombin) with or without test compound (1 to 300 µM) and incubated at 37°C for 3 min.. After the addition of fibrinogen (final conc. 1 mg/ml) the aggregation is recorded.
Aggregation maximum for PRP or GFP without any inhibitor is taken as 100 % aggregation and is compared with aggregation maximum of RPR or GFP incubated with the test compound.

[1] = system: Gel Filtered Platelets (GFP); assay: ADP induced aggregation of Gel Filtered Platelets (GFP); assay type: cell-based; settings: Homo sapiens, Platelet, 0.05 h, GFP (gel filtered platelets) in Tyrode's buffer, fibrinogen 1 mg/ml, 37°C for 3 min, read-out: IC₅₀(µM) Inhibitor of ADP induced Platelet aggregation
Procedure: The compounds of the above invention are tested for platelet binding inhibitory activity in the following assays: • 1. In-vitro Human Platelet Aggregation in PRP: Blood is drawn from healthy human volunteers who had no medication for at least two weeks. 8.4 ml of venous blood are collected into 1.4 ml of ACD solution (citric acid 0.8 %, sodium citrate 2.2 %, hirudin 0.6 u/ml) and centrifuged for 10 min. at 120 g. The platelet rich plasma (PRP) is carefully removed and remaining blood is further centrifuged at 1200 g for 15 min. to separate platelet poor plasma (PPP). For aggregation studies the aggregometer is adjusted by using PPP and PRP. ADP is then added tp PRP which is kept at 37°C and stirred constantly at 1000 rpm. The aggregation of platelets causes an increase in transparency of PRP which is recorded. • 2. Preparation of Gel Filtered Platelets (GFP): Platelet rich plasma (PRP) is collected as mentioned in the above procedure. Its pH is adjusted to 6.5 with ACD solution and then centrifuged at 285 g for 20 min.. The resulting pellet is resuspended in Tyrode's buffer (NaCl, 7.01 g/l; KCl, 0194 g/l; NaHCO₃, 1.01 g/l; Glucose, 1.09 g/l; NaH₂PO₄, 0.061 g/l; Hepes, 2.380 g/l; albumin, 3.5 g/l) and the platelet suspension is applied on to a ^RSepharose CL 20 column. […] After the addition of fibrinogen (final conc. 1 mg/ml) the aggregation is recorded. […]

| Compound | IC50 (Human Platelet) [µM] | IC50 [1] [µM] |
| --- | --- | --- |
| COC(=O)COc1ccc(C=CC(=O)c2c(OC)cc(OC)c(C3CCN(C)CC3O)c2O)cc1 (centres unmarked) [Compound 2] | 5.3 | 0.53 |
| COC(=O)COc1ccc(C=CC(=O)c2c(OC)cc(OC)c(C3CCN(C)CC3)c2O)cc1 [Compound 6] | 17 |  |
| COC(=O)COc1ccc(CCC(=O)c2c(OC)cc(OC)c(C3CCN(C)CC3)c2O)cc1 [Compound 7] | 8 | 2 |
